Laboratory results taken from patent US8399522B2, “3.2.1-bicyclo-octane compounds” (International Flavors & Fragrances Inc, priority 2010, dated 2013).

Legend:
[1] = Sweat malodor coverage, jar test ranked by sensory panel; set-up: species or system human; conditions: compound 10% in solvent; for Sweat Malodor, mean rank of malodor coverage: 8 oz jar, 1 hour equilibration, 15-18 panelists, scale 1 (No Coverage), 3 (Moderate Coverage), 5 (Excellent Coverage)
Experimental: (§1) Establishment of Malodor Models: It is known that the perspirative malodors of human body, particularly sweat, are associated with the production of several unpleasant smelling organic acids, particularly isovaleric acid (“IVA”). The commercial sample of this malodorous material (commercially available at Sigma-Aldrich Inc.) was thus used as a model compound to assess the effectiveness of sweat malodor counteractants. The mold/mildew malodor model was prepared based on applicant's proprietary formulations for assessing the effectiveness of mold/mildew malodor counteractants.
(§2) Preparation of Test Samples: Two aluminum dishes were placed in an 8 oz glass jar. A malodor material was pipetted into one aluminum dish, and a compound of the present invention diluted in a solvent (10%) or a solvent alone control was pipetted into the other aluminum dish. The jar was then capped and the samples were allowed to equilibrate for one hour before the testing.
(§3) Testing Procedure: Test samples were presented in a blind and random order to 15-18 internal panelists (consisting of men/women with an age range of 25 to 55). However, different odor samples were arranged in an alternative order (for example, sweat, mold/mildew, sweat, mold/mildew, and etc.).
(§4) The panelists were instructed to take the steps of i) sniff jars containing only the malodor materials for familiarization prior to the testing; ii) uncap a jar; iii) place their noses at a distance of about 3-4 inches above the opening; iv) take short sniffs for 3 seconds; and v) provide a rank of the malodor coverage using an intensity scale of 1 to 5, where 1 represents “No Coverage”, 3 represents “Moderate Coverage”, and 5 represents “Excellent Coverage”. The means for each sample was then calculated.

[2] = Mold/mildew malodor coverage, jar test ranked by sensory panel; set-up: species or system human; conditions: compound 10% in solvent; for Mold/Mildew Malodor, mean rank of malodor coverage: 8 oz jar, 1 hour equilibration, 15-18 panelists, scale 1 (No Coverage), 3 (Moderate Coverage), 5 (Excellent Coverage)
Experimental: as §1, §2, §3, §4

[3] = Vapor pressure; format: physicochemical

For `CC12CCC(C1)C1(C)OC1C2` (centres unmarked) [Structure 1, 2,6-dimethyl-3-oxa-tricyclo[4.2.1.0*2,4*]nonane], which “counteracting sweat malodor (in words)” value [1] is on record?
The value was “effective”.

What about the “Sweat Malodor, mean rank of malodor coverage” value (from here on “Sweat Malodor, mean rank”) [1] of the same molecule?
Its value is 3.59.

What about the “counteracting mold/mildew malodor (in words)” value [2] of the same molecule?
The value was “effective”.

What about the “Mold/Mildew Malodor, mean rank of malodor coverage” value (“Mold/Mildew Malodor, mean rank” below) [2] of the same molecule?
The value was 3.87.

And the “Vapor Pressure” value [3]?
Its value is 2186 µg/L.

Which “counteracting sweat malodor (in words)” value [1] does the source give for `CC1C(=O)CC2(C)CCC1C2` (centres unmarked) [Structure 2, 1,4-dimethyl-bicyclo[3.2.1]octan-3-one] here?
Its value is “effective”.

And the “Sweat Malodor, mean rank” value [1]?
Its value is 3.57.

What about the “counteracting mold/mildew malodor (in words)” value [2] of the same molecule?
Its value is “effective”.

And the “Mold/Mildew Malodor, mean rank” value [2]?
The value was 3.63.

What about the “Vapor Pressure” value [3] of the same molecule?
The value was 4305 µg/L.

With `CC1CC2(C)C3CCC(C)(C3)CC2O1` (centres unmarked) [Structure 4, 2,4,8-trimethyl-5-oxa-tricyclo [6.2.1.0*2,6*]undecane] as the molecule, how does the “counteracting sweat malodor (in words)” value [1] read?
The value was “effective”.

And the “Sweat Malodor, mean rank” value [1]?
The value was 3.11.

What about the “counteracting mold/mildew malodor (in words)” value [2] of the same molecule?
Its value is “effective”.

And the “Mold/Mildew Malodor, mean rank” value [2]?
The value was 2.79.

And the “Vapor Pressure” value [3]?
Its value is 1045 µg/L.

With `CC1C2CCC(C)(C2)CC12OCCO2` (centres unmarked) [Structure 5, 1,4-dimethyl-bicyclo[3.2.1]octan-3-dioxolane] as the molecule, how does the “counteracting sweat malodor (in words)” value [1] read?
Its value is “effective”.

And the “Sweat Malodor, mean rank” value [1]?
The value was 2.92.

And the “counteracting mold/mildew malodor (in words)” value [2]?
Its value is “effective”.

And the “Mold/Mildew Malodor, mean rank” value [2]?
Its value is 2.39.

And the “Vapor Pressure” value [3]?
Its value is 1281 µg/L.
